Experimental data published in publication PMC3364000 (Vaccine, 2009).
Peptide text beside a SMILES is read from it.

How the values were obtained:
Test in all cases: biochemical
Assay type in all cases: binding
HLA-DRB1*0301 = HLA-DRB1*0301 (Homo sapiens, UniProt P01903+P01911, A100K/A102G/A103R/A169T/F55Y/I96L/K41T/L162R/M171V/P40S/Q125H/Q178H/Q39Y/R42S/S66N/T106N/T262R/W38E/Y61H)
HLA-DRB5*0101 = HLA-DRB5*0101 (Homo sapiens, UniProt P01903+Q30154)
HLA-DRB4*0101 = HLA-DRB4*0101 (Homo sapiens, UniProt P01903+P13762, G164S)
HLA-DRB1*0701 = HLA-DRB1*0701 (Homo sapiens, UniProt P01903+P01911, A100R/A102G/A103Q/D57E/D86V/E43K/F76Y/K127E/L162R/M171V/P40G/Q125H/Q99D/R33Q/R42Y/R54Q/S133A/S66F/T210M/V115G/Y107V/Y59L/Y89S)
HLA-DRB1*0404 = HLA-DRB1*0404 (Homo sapiens, UniProt P01903+P01911, A100R/A169T/F76Y/I96L/K127E/L162R/M171V/N62H/P40V/Q125Y/R42H/S133A/S149N/S66Y/V209L/W38E)
HLA-DRB1*1101 = HLA-DRB1*1101 (Homo sapiens, UniProt P01903+P01911, A100R/A169T/A87E/I96F/K41T/L162R/M171V/P40S/Q125H/Q178H/Q39Y/Q99D/R42S/S66Y/T262R/V115G/W38E)
HLA-DRB1*1101, sequence (P01903 26-254 limits assumed, other chains not shown): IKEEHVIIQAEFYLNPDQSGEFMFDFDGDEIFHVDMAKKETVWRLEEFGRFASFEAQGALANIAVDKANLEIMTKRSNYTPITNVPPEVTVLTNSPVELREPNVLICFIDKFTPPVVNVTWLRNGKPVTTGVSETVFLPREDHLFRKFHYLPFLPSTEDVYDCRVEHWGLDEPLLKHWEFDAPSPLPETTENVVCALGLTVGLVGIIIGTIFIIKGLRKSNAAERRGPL

HLA-DRB1*1501 = HLA-DRB1*1501 (Homo sapiens, UniProt P01903+P01911)
HLA-DRB1*0401 = HLA-DRB1*0401 (Homo sapiens, UniProt P01903+P01911, A100K/A169T/F76Y/I96L/K127E/L162R/M171V/N62H/P40V/Q125Y/R42H/S133A/S149N/S66Y/V115G/V209L/W38E)
HLA-DRB1*0405 = HLA-DRB1*0405 (Homo sapiens, UniProt P01903+P01911, A100R/A169T/D86S/F76Y/I96L/K127E/L162R/M171V/N62H/P40V/Q125Y/R42H/S133A/S149N/S66Y/V115G/V209L/W38E)
HLA-DRB1*1302 = HLA-DRB1*1302 (Homo sapiens, UniProt P01903+P01911, A100E/A169T/K41T/L162R/M171V/P40S/Q125H/Q178H/Q39Y/Q99D/R42S/S66N/T262R/V115G/W38E/Y61H)
HLA-DRB1*1302, sequence (P01903 26-254 limits assumed, other chains not shown): as above

HLA-DRB1*0802 = HLA-DRB1*0802 (Homo sapiens, UniProt P01903+P01911, A100R/A103L/A169T/F76Y/H45Y/I96F/K41T/L162R/M171V/P40S/Q125H/Q178H/Q39Y/Q99D/R218S/R42G/S66Y/V115G/W38E)
HLA-DRB1*0901 = HLA-DRB1*0901 (Homo sapiens, UniProt P01903+P01911, A100R/A103E/D57H/D86V/F55Y/F60I/F76Y/I96F/K127E/L162R/M171V/P40D/Q125H/Q99R/R33Q/R42F/S133A/S66N/T210M/V115G/W38K/Y107V/Y59G/Y89S)
HLA-DRB1*0101 = HLA-DRB1*0101 (Homo sapiens, UniProt P01903+P01911, A100R/D57E/F55L/F60I/F76Y/I96L/L162R/M171V/P40L/Q125E/R42F/V115G/Y59C)

HLA-DRB1*0301, sequence (P01903 26-254, other chains not shown): as the sequence (P01903 26-254 limits assumed, other chains not shown) above

SMILES	IC50 (HLA-DRB1*0301)	IC50 (HLA-DRB5*0101)	IC50 (HLA-DRB4*0101)	IC50 (HLA-DRB1*0701)	IC50 (HLA-DRB1*0404)	IC50 (HLA-DRB1*1101)	IC50 (HLA-DRB1*1501)	IC50 (HLA-DRB1*0401)	IC50 (HLA-DRB1*0405)	IC50 (HLA-DRB1*1302)	IC50 (HLA-DRB1*0802)	IC50 (HLA-DRB1*0901)	IC50 (HLA-DRB1*0101)
CC[C@H](C)[C@H](NC(=O)CNC(=O)[C@@H](NC(=O)[C@@H](NC(=O)[C@H](CO)NC(=O)[C@H](C)NC(=O)[C@H](C)NC(=O)[C@@H](NC(=O)[C@@H](NC(=O)[C@H](CC(C)C)NC(=O)[C@@H]1CCCN1C(=O)[C@@H](N)CC(=O)O)C(C)C)C(C)C)[C@@H](C)CC)[C@@H](C)CC)C(=O)N[C@@H](CC(C)C)C(=O)N[C@@H](Cc1c[nH]cn1)C(=O)N[C@@H](CC(C)C)C(=O)O [M2.24]	> 10000 nM	> 10000 nM	–	–	–	–	–	–	–	–	–	–	–
CC[C@H](C)[C@H](N)C(=O)NCC(=O)N[C@@H](CCCNC(=N)N)C(=O)N[C@@H](Cc1ccccc1)C(=O)N[C@@H](Cc1ccc(O)cc1)C(=O)N[C@H](C(=O)N[C@@H](CCC(N)=O)C(=O)N[C@@H](CCSC)C(=O)N[C@@H](CS)C(=O)N[C@H](C(=O)N[C@@H](CCC(=O)O)C(=O)N[C@@H](CC(C)C)C(=O)N[C@@H](CCCCN)C(=O)N[C@@H](CC(C)C)C(=O)N[C@@H](CO)C(=O)N[C@@H](CC(=O)O)C(=O)N[C@@H](Cc1ccc(O)cc1)C(=O)N[C@@H](CCC(=O)O)C(=O)NCC(=O)O)[C@@H](C)O)[C@@H](C)CC [NP.36] (H-IGRFYIQMCTELKLSDYEG-OH)	291 nM	28 nM	210 nM	443 nM	116 nM	236 nM	23 nM	53 nM	29 nM	2700 nM	486 nM	193 nM	31 nM
CC[C@H](C)[C@H](NC(=O)[C@H](CO)NC(=O)[C@H](CC(N)=O)NC(=O)[C@@H](N)CCC(N)=O)C(=O)N[C@H](C(=O)N[C@H](C(=O)N[C@@H](CCC(=O)O)C(=O)N[C@@H](CCCNC(=N)N)C(=O)N[C@@H](CCSC)C(=O)N[C@H](C(=O)N[C@@H](CC(C)C)C(=O)N[C@@H](CO)C(=O)N[C@@H](C)C(=O)N[C@@H](Cc1ccccc1)C(=O)N[C@@H](CC(=O)O)C(=O)O)C(C)C)[C@@H](C)CC)[C@@H](C)O [NP.58]	–	> 10000 nM	–	–	188 nM	–	–	–	–	–	–	–	–
CSCC[C@H](NC(=O)[C@H](Cc1c[nH]c2ccccc12)NC(=O)[C@@H](NC(=O)[C@H](CC(C)C)NC(=O)[C@H](CCC(N)=O)NC(=O)[C@H](CO)NC(=O)[C@@H](N)CCCCN)C(C)C)C(=O)N[C@@H](C)C(=O)N[C@@H](CS)C(=O)N[C@@H](Cc1c[nH]cn1)C(=O)N[C@@H](CO)C(=O)N[C@@H](C)C(=O)N[C@@H](C)C(=O)N[C@@H](Cc1ccccc1)C(=O)N[C@@H](CCC(=O)O)C(=O)O [NP.325]	–	–	–	–	34 nM	–	–	–	–	> 10000 nM	–	–	35 nM
CC[C@H](C)[C@H](NC(=O)[C@H](C)NC(=O)CNC(=O)[C@@H](N)CCC(=O)O)C(=O)N[C@H](C(=O)NCC(=O)N[C@@H](CCC(=O)O)C(=O)N[C@H](C(=O)N[C@@H](CO)C(=O)N1CCC[C@H]1C(=O)N[C@@H](CC(C)C)C(=O)N1CCC[C@H]1C(=O)N[C@@H](CO)C(=O)N[C@@H](CC(C)C)C(=O)N1CCC[C@H]1C(=O)NCC(=O)N[C@@H](Cc1c[nH]cn1)C(=O)N[C@H](C(=O)N[C@@H](CC(=O)O)C(=O)O)[C@@H](C)O)[C@@H](C)CC)C(C)C [NS1.153]	8330 nM	1140 nM	131 nM	> 10000 nM	6 nM	88 nM	7 nM	14 nM	98 nM	1770 nM	227 nM	6360 nM	64 nM
CC[C@H](C)[C@H](NC(=O)[C@H](CCC(N)=O)NC(=O)[C@H](CCC(=O)O)NC(=O)[C@@H](N)Cc1ccccc1)C(=O)N[C@H](C(=O)N[C@@H](Cc1ccccc1)C(=O)N[C@@H](CCSC)C(=O)N[C@@H](CCC(N)=O)C(=O)N[C@@H](C)C(=O)N[C@@H](CC(C)C)C(=O)N[C@@H](CCC(N)=O)C(=O)N[C@@H](CC(C)C)C(=O)N[C@@H](CC(C)C)C(=O)N[C@@H](CC(C)C)C(=O)N[C@@H](CCC(=O)O)C(=O)O)[C@@H](C)O [NS2.94]	–	–	–	–	–	–	10 nM	–	–	–	–	–	–
CC[C@H](C)[C@H](NC(=O)[C@H](CCCCN)NC(=O)[C@H](CC(N)=O)NC(=O)[C@H](C)NC(=O)[C@H](CCCCN)NC(=O)[C@H](CCC(=O)O)NC(=O)[C@H](CC(C)C)NC(=O)[C@H](Cc1ccc(O)cc1)NC(=O)[C@H](Cc1ccc(O)cc1)NC(=O)[C@@H](NC(=O)[C@H](Cc1c[nH]cn1)NC(=O)[C@@H](NC(=O)[C@H](CCC(=O)O)NC(=O)[C@H](CCCNC(=N)N)NC(=O)[C@@H](N)CCCNC(=N)N)C(C)C)[C@@H](C)CC)C(=O)O [PA.124]	> 10000 nM	–	–	–	–	–	4 nM	–	–	–	–	–	–
